Experimental data as given in ChEMBL document CHEMBL4138231 (Eur J Med Chem, 2018).
Activity calls are given as the source filed them. The rule behind the calls is not given here.

Legend:
[1] = target: Serine/threonine-protein kinase PLK3 (Homo sapiens, UniProt Q9H4B4); test: Inhibition human recombinant GST-tagged Plk3 catalytic domain (58 to 340 residues) expressed in baculovirus expression system after 1 hr by FRET-based Z'-Lyte assay
NCI-H1975 = test: Antiproliferative activity against human NCI-H1975 cells after 72 hrs by CCK8 assay; type: functional
Huh-7 = test: Antiproliferative activity against human HuH7 cells after 72 hrs by CCK8 assay; type: functional
[2] = target: Serine/threonine-protein kinase PLK2 (Homo sapiens, UniProt Q9NYY3); test: Inhibition human recombinant full length GST-tagged Plk2 expressed in baculovirus expression system after 1 hr by FRET-based Z'-Lyte assay
Serine/threonine-protein kinase PLK2, sequence (Q9NYY3 whole entry): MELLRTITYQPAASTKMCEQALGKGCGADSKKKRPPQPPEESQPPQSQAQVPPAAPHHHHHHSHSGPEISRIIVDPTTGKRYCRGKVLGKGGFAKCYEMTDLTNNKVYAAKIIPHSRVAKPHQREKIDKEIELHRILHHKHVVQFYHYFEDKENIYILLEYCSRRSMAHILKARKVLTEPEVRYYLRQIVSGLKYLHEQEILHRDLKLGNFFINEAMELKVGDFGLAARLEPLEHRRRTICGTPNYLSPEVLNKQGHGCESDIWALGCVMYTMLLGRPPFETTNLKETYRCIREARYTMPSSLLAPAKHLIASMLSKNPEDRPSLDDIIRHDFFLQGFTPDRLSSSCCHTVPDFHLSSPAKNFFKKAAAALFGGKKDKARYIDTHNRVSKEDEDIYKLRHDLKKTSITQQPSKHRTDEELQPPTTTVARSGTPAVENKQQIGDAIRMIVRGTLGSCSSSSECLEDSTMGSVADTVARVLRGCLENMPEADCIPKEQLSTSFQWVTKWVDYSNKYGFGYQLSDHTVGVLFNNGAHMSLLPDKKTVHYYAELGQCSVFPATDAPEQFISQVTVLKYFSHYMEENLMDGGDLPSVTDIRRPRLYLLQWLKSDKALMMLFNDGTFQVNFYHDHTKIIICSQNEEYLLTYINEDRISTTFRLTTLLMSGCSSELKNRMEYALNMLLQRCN

A549 = test: Antiproliferative activity against human A549 cells after 72 hrs by CCK8 assay; type: functional
[3] = target: Serine/threonine-protein kinase PLK1 (Homo sapiens, UniProt P53350); test: Inhibition human recombinant full length His-tagged Plk1 expressed in baculovirus expression system after 1 hr by FRET-based Z'-Lyte assay
Serine/threonine-protein kinase PLK1, sequence (P53350 whole entry): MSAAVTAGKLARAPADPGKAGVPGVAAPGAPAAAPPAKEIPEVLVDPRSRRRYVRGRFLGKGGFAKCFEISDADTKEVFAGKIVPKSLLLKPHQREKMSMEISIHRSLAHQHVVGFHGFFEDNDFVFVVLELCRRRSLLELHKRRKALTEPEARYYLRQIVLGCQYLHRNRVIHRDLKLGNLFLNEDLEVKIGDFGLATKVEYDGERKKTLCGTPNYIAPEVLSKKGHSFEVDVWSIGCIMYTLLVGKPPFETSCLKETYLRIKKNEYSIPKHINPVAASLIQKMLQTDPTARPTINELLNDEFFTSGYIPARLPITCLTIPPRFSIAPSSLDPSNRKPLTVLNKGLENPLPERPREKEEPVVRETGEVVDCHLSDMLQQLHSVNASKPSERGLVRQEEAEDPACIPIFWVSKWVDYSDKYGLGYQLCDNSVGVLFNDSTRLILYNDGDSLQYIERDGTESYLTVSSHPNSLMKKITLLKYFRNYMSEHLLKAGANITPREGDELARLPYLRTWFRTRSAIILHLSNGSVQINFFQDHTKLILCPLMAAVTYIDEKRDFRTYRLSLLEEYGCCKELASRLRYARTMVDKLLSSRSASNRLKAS

HeLa = test: Antiproliferative activity against human HeLa cells after 72 hrs by CCK8 assay; type: functional
MCF7 = test: Antiproliferative activity against human MCF7 cells after 72 hrs by CCK8 assay; type: functional; conditions: MCF7, 72 h
K562 = test: Antiproliferative activity against human K562 cells after 72 hrs by CCK8 assay; type: functional; conditions: K562, 72 h

Serine/threonine-protein kinase PLK3, sequence (Q9H4B4 whole entry, the tested form may be a part): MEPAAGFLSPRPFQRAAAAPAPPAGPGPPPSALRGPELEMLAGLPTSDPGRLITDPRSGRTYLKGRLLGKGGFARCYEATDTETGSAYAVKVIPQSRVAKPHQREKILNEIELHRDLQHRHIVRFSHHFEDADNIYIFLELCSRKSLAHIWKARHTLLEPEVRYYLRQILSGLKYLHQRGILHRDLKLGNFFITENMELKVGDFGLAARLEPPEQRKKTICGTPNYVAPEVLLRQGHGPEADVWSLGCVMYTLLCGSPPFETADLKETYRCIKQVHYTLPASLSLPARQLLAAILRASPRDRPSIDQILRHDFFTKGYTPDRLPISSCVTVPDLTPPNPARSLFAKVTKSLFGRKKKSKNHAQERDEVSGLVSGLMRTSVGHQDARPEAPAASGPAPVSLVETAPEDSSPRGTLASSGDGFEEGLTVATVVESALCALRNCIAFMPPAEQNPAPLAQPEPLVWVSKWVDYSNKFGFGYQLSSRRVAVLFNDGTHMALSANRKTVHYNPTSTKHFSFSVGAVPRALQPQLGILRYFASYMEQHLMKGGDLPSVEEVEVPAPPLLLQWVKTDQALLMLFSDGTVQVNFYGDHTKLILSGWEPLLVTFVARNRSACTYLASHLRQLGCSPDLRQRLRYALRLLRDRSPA

Row | IC50 [1] | GI50 (NCI-H1975; NCI-H1975, 72 h) | GI50 (Huh-7) | IC50 [2] | GI50 (A549) | IC50 [3] | GI50 (HeLa) | GI50 (MCF7) | GI50 (K562) | GI50 (NCI-H1975) | GI50 (Huh-7; Huh-7, 72 h) | GI50 (A549; A549, 72 h) | Structure (SMILES)
1 | > 10 µM | 28.6 µM | inactive | 1.5 µM | inactive | > 10 µM | inactive | 24.7 µM | 6.07 µM | – | – | – | CCC1C(=O)N(C)c2cnc(-n3ccc4cc(F)ccc43)nc2N1c1ccn(C)n1 (racemic)
2 | > 10 µM | – | – | 0.243 µM | – | – | 11.1 µM | 13.2 µM | 12.8 µM | inactive | 20.3 µM | 21.7 µM | CCNC(=O)c1ccc2c(ccn2-c2ncc3c(n2)N(c2ccn(C)n2)C(CC)C(=O)N3C)c1 (racemic)
